Experimental data reported in PubChem BioAssay AID1963976 (Molecular Pharmacology Branch, DTP, NCI, 2024).

Test system: 435261-313-R-J1-PDC tumor spheroid viability
Assay: Anticancer human tumor 435261-313-R-J1-PDC patient-derived colon adenocarcinoma cell line growth inhibition [PI3K]
Details: spheroids with HUVEC and MSC; for IC50: curve of first compound; for viability, T/C: stronger effect = lower value
Method in brief: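 Agents were dosed from a top concentration near clinical Cmax (otherwise 10 microM) in half-log decrements, alone or combined with PI3K inhibitors. The spheroids contain tumor cells plus endothelial (HUVEC) and MSC stroma; viability is measured.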
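Note: spheroids exposed to compounds for 7 days.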

Cn1nccc1Nc1nccc(-c2ccn(C(CO)c3ccc(Cl)c(F)c3)c(=O)c2)n1 (centres undefined) + CC(Nc1ccc2c(c1)OCCn1cc(N3C(=O)OCC3C(F)F)nc1-2)C(N)=O
IC50 (second compound 0.00316 µM): 421 nM
IC50 (second compound 0.01 µM): 218 nM
IC50 (second compound 0.0316 µM): 105 nM
IC50 (second compound 0.1 µM): < 31.6 nM
IC50 (second compound 0.316 µM): < 31.6 nM
IC50 (second compound 1 µM): < 31.6 nM
viability, T/C (second compound 0.00316 µM, first compound 0.0316 µM): 90.4%
viability, T/C (second compound 0.00316 µM, first compound 0.1 µM): 73.3%
viability, T/C (second compound 0.00316 µM, first compound 0.316 µM): 51.7%
viability, T/C (second compound 0.00316 µM, first compound 1 µM): 40.1%
viability, T/C (second compound 0.00316 µM, first compound 3.16 µM): 22.1%
viability, T/C (second compound 0.00316 µM, first compound 10 µM): 12.8%
viability, T/C (second compound 0.01 µM, first compound 0.0316 µM): 72.6%
viability, T/C (second compound 0.01 µM, first compound 0.1 µM): 71.7%
viability, T/C (second compound 0.01 µM, first compound 0.316 µM): 39.5%
viability, T/C (second compound 0.01 µM, first compound 1 µM): 25.6%
viability, T/C (second compound 0.01 µM, first compound 3.16 µM): 27%
viability, T/C (second compound 0.01 µM, first compound 10 µM): 11.7%
viability, T/C (second compound 0.0316 µM, first compound 0.0316 µM): 68%
viability, T/C (second compound 0.0316 µM, first compound 0.1 µM): 52.1%
viability, T/C (second compound 0.0316 µM, first compound 0.316 µM): 28.7%
viability, T/C (second compound 0.0316 µM, first compound 1 µM): 18.9%
viability, T/C (second compound 0.0316 µM, first compound 3.16 µM): 14.9%
viability, T/C (second compound 0.0316 µM, first compound 10 µM): 8.18%
viability, T/C (second compound 0.1 µM, first compound 0.0316 µM): 38.6%
viability, T/C (second compound 0.1 µM, first compound 0.1 µM): 23.1%
viability, T/C (second compound 0.1 µM, first compound 0.316 µM): 16.9%
viability, T/C (second compound 0.1 µM, first compound 1 µM): 11.8%
viability, T/C (second compound 0.1 µM, first compound 3.16 µM): 10.1%
viability, T/C (second compound 0.1 µM, first compound 10 µM): 5.9%
viability, T/C (second compound 0.316 µM, first compound 0.0316 µM): 19.6%
viability, T/C (second compound 0.316 µM, first compound 0.1 µM): 16.3%
viability, T/C (second compound 0.316 µM, first compound 0.316 µM): 9.92%
viability, T/C (second compound 0.316 µM, first compound 1 µM): 8.05%
viability, T/C (second compound 0.316 µM, first compound 3.16 µM): 5.78%
viability, T/C (second compound 0.316 µM, first compound 10 µM): 3.34%
viability, T/C (second compound 1 µM, first compound 0.0316 µM): 16.8%
viability, T/C (second compound 1 µM, first compound 0.1 µM): 12.2%
viability, T/C (second compound 1 µM, first compound 0.316 µM): 6.71%
viability, T/C (second compound 1 µM, first compound 1 µM): 6.3%
viability, T/C (second compound 1 µM, first compound 3.16 µM): 4.27%
viability, T/C (second compound 1 µM, first compound 10 µM): 0.75%

Cn1cnc2c(F)c(Nc3ccc(Br)cc3Cl)c(C(=O)NOCCO)cc21 + CC(Nc1ccc2c(c1)OCCn1cc(N3C(=O)OCC3C(F)F)nc1-2)C(N)=O
IC50 (second compound 0.00316 µM): < 9.49 nM
IC50 (second compound 0.01 µM): < 9.49 nM
IC50 (second compound 0.0316 µM): < 9.49 nM
IC50 (second compound 0.1 µM): < 9.49 nM
IC50 (second compound 0.316 µM): < 9.49 nM
IC50 (second compound 1 µM): < 9.49 nM
viability, T/C (second compound 0.00316 µM, first compound 0.00949 µM): 28.1%
viability, T/C (second compound 0.00316 µM, first compound 0.03 µM): 22.7%
viability, T/C (second compound 0.00316 µM, first compound 0.0949 µM): 14.8%
viability, T/C (second compound 0.00316 µM, first compound 0.3 µM): 15.4%
viability, T/C (second compound 0.00316 µM, first compound 0.949 µM): 16.1%
viability, T/C (second compound 0.00316 µM, first compound 3 µM): 11%
viability, T/C (second compound 0.01 µM, first compound 0.00949 µM): 25.1%
viability, T/C (second compound 0.01 µM, first compound 0.03 µM): 24.3%
viability, T/C (second compound 0.01 µM, first compound 0.0949 µM): 16.8%
viability, T/C (second compound 0.01 µM, first compound 0.3 µM): 16.2%
viability, T/C (second compound 0.01 µM, first compound 0.949 µM): 16.1%
viability, T/C (second compound 0.01 µM, first compound 3 µM): 11.5%
viability, T/C (second compound 0.0316 µM, first compound 0.00949 µM): 25.9%
viability, T/C (second compound 0.0316 µM, first compound 0.03 µM): 23.4%
viability, T/C (second compound 0.0316 µM, first compound 0.0949 µM): 15.4%
viability, T/C (second compound 0.0316 µM, first compound 0.3 µM): 14.8%
viability, T/C (second compound 0.0316 µM, first compound 0.949 µM): 12.2%
viability, T/C (second compound 0.0316 µM, first compound 3 µM): 6.61%
viability, T/C (second compound 0.1 µM, first compound 0.00949 µM): 21.4%
viability, T/C (second compound 0.1 µM, first compound 0.03 µM): 12.5%
viability, T/C (second compound 0.1 µM, first compound 0.0949 µM): 13.1%
viability, T/C (second compound 0.1 µM, first compound 0.3 µM): 11.7%
viability, T/C (second compound 0.1 µM, first compound 0.949 µM): 10.7%
viability, T/C (second compound 0.1 µM, first compound 3 µM): 6.55%
viability, T/C (second compound 0.316 µM, first compound 0.00949 µM): 12%
viability, T/C (second compound 0.316 µM, first compound 0.03 µM): 12.2%
viability, T/C (second compound 0.316 µM, first compound 0.0949 µM): 4.89%
viability, T/C (second compound 0.316 µM, first compound 0.3 µM): 8.13%
viability, T/C (second compound 0.316 µM, first compound 0.949 µM): 7.5%
viability, T/C (second compound 0.316 µM, first compound 3 µM): 2.69%
viability, T/C (second compound 1 µM, first compound 0.00949 µM): 11.9%
viability, T/C (second compound 1 µM, first compound 0.03 µM): 9.34%
viability, T/C (second compound 1 µM, first compound 0.0949 µM): 5.53%
viability, T/C (second compound 1 µM, first compound 0.3 µM): 6.3%
viability, T/C (second compound 1 µM, first compound 0.949 µM): 4.59%
viability, T/C (second compound 1 µM, first compound 3 µM): 0.73%
